Results published in ChEMBL document CHEMBL5154908, “Design, Synthesis, and Biological Characterization of Inhaled p38α/β MAPK Inhibitors for the Treatment of Lung Inflammatory Diseases” (J Med Chem, 2022).
Converted amounts (≈) assume the structure as drawn.

System: not listed separately
Assay: Metabolic stability in rat liver microsomes assessed as half life at 1 uM preincubated for 10 mins followed by NADPH addition and measured after 30 mins by LC/MS/MS analysis
Assay type: ADME, Microsome
Settings: time 40 min
Compound `Cc1ccc(-n2nc(C(C)(C)C)cc2NC(=O)N[C@H]2CC[C@@H](Oc3ccc4nnc(N5CCC(CO)CC5)n4c3)c3ccccc32)cc1` has a half-life at 1 µM of 15 min. For `C[C@H]1CCCCN1c1nnc2ccc(O[C@@H]3CC[C@H](NC(=O)Nc4cc(C(C)(C)C)nn4-c4cnn(CCN(C)C)c4)c4ccccc43)cn12`, the half-life at 1 µM was < 5 min.

Molecular target: T1, Mitogen-activated protein kinase 14 (Homo sapiens, UniProt Q16539)
T1 sequence (Q16539 whole entry): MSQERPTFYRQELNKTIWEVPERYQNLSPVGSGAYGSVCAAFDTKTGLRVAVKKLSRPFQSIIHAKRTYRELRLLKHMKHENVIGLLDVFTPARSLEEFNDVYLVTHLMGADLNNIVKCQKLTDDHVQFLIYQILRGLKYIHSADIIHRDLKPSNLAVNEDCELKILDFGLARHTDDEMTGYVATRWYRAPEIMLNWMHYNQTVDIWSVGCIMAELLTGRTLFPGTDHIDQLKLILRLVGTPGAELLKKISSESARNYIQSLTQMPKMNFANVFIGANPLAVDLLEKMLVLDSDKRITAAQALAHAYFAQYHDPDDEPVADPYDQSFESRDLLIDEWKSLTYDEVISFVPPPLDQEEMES
Assay: Inhibition of human recombinant full length GST-tagged p38alpha expressed in Escherichia coli preincubated for 2 hrs followed by ATP addition and measured after 1 hr by Alpha screen assay
Settings: not given
`Cc1ccc(-n2nc(C(C)(C)C)cc2NC(=O)N[C@H]2CC[C@@H](Oc3ccc4nnc(N5CCC(CO)CC5)n4c3)c3ccccc32)cc1` gave an IC50 of 0.3 nM. `C[C@H]1CCCCN1c1nnc2ccc(O[C@@H]3CC[C@H](NC(=O)Nc4cc(C(C)(C)C)nn4-c4cnn(CCN(C)C)c4)c4ccccc43)cn12` showed an IC50 of 0.1 nM.

System: not listed separately
Assay: Inhibition of LPS-stimulated TNFalpha release in human PBMC cells preincubated for 1 hr followed by LPS stimulation and measured after 18 hrs
Assay type: functional, cell-based
Settings: not given
`Cc1ccc(-n2nc(C(C)(C)C)cc2NC(=O)N[C@H]2CC[C@@H](Oc3ccc4nnc(N5CCC(CO)CC5)n4c3)c3ccccc32)cc1` gave an IC50 of 1 nM. Compound `C[C@H]1CCCCN1c1nnc2ccc(O[C@@H]3CC[C@H](NC(=O)Nc4cc(C(C)(C)C)nn4-c4cnn(CCN(C)C)c4)c4ccccc43)cn12` has an IC50 of 1 nM.

Molecular target: T1, Mitogen-activated protein kinase 14
Assay: Displacement of SKF-86002 from human inactivated p38alpha assessed as dissociation half life incubated for 2 hrs by fluorescence based analysis
Settings: not given
In the case of `Cc1ccc(-n2nc(C(C)(C)C)cc2NC(=O)N[C@H]2CC[C@@H](Oc3ccc4nnc(N5CCC(CO)CC5)n4c3)c3ccccc32)cc1`, the T1/2 is reported as > 960 min.

Molecular target: Mitogen-activated protein kinase 11 (Homo sapiens, UniProt Q15759)
Sequence (Q15759 whole entry): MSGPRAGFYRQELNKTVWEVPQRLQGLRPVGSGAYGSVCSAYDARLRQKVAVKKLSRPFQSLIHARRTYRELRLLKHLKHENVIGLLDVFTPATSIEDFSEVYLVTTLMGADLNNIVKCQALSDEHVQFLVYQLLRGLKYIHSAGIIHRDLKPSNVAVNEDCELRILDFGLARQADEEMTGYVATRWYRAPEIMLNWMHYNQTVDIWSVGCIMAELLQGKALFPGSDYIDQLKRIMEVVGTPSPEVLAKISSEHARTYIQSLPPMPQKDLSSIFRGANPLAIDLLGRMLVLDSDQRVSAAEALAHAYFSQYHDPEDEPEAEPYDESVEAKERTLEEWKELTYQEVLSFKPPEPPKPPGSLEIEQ
Assay: Inhibition of recombinant human full length His-tagged p38beta expressed in baculovirus expression system preincubated for 2 hrs followed by ATP addition and measured after 1 hr by Alpha screen assay
Settings: not given
In the case of `Cc1ccc(-n2nc(C(C)(C)C)cc2NC(=O)N[C@H]2CC[C@@H](Oc3ccc4nnc(N5CCC(CO)CC5)n4c3)c3ccccc32)cc1`, the IC50 is reported as 0.8 nM.

Molecular target: T2, Mitogen-activated protein kinase 12 (Homo sapiens, UniProt P53778)
T2 sequence (P53778 whole entry): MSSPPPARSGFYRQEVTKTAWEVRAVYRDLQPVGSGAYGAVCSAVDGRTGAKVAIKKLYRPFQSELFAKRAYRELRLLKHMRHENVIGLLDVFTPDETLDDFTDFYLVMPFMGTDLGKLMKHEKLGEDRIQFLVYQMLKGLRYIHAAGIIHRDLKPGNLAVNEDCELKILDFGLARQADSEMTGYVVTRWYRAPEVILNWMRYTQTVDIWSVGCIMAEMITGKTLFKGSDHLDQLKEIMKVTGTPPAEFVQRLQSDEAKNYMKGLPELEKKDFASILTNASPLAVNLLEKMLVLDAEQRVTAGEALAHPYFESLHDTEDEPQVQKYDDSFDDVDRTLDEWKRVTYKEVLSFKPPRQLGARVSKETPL
Assay: Inhibition of recombinant human full length His-tagged p38gamma expressed in baculovirus expression system preincubated for 2 hrs followed by ATP addition and measured after 1 hr by Alpha screen assay
Settings: not given
`Cc1ccc(-n2nc(C(C)(C)C)cc2NC(=O)N[C@H]2CC[C@@H](Oc3ccc4nnc(N5CCC(CO)CC5)n4c3)c3ccccc32)cc1` showed an IC50 of 10 nM.

Molecular target: T3, Mitogen-activated protein kinase 13 (Homo sapiens, UniProt O15264)
T3 sequence (O15264 whole entry): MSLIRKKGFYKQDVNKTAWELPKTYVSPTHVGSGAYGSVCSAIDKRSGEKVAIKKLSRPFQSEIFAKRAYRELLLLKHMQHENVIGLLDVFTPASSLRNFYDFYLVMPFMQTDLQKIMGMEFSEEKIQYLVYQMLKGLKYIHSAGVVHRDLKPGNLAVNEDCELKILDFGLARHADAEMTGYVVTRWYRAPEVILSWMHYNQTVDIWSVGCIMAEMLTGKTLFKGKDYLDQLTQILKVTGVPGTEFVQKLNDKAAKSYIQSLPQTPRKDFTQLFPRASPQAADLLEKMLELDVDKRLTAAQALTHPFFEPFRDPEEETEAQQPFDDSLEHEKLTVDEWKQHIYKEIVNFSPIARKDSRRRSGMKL
Assay: Inhibition of recombinant human full length His-tagged p38delta expressed in baculovirus expression system preincubated for 2 hrs followed by ATP addition and measured after 1 hr by Alpha screen assay
Settings: not given
For `Cc1ccc(-n2nc(C(C)(C)C)cc2NC(=O)N[C@H]2CC[C@@H](Oc3ccc4nnc(N5CCC(CO)CC5)n4c3)c3ccccc32)cc1`, the IC50 was 931 nM. For `C[C@H]1CCCCN1c1nnc2ccc(O[C@@H]3CC[C@H](NC(=O)Nc4cc(C(C)(C)C)nn4-c4cnn(CCN(C)C)c4)c4ccccc43)cn12`, the IC50 was 4100 nM.

System: not listed separately
Assay: Solubility of the compound at >=1 mg/ml measured after 30 mins by HPLC analysis
Assay type: physicochemical
Settings: not given
Compound `Cc1ccc(-n2nc(C(C)(C)C)cc2NC(=O)N[C@H]2CC[C@@H](Oc3ccc4nnc(N5CCC(CO)CC5)n4c3)c3ccccc32)cc1` has a solubility at 0.5 h of 10 µg/mL (≈ 15.4 µM). In the case of `C[C@H]1CCCCN1c1nnc2ccc(O[C@@H]3CC[C@H](NC(=O)Nc4cc(C(C)(C)C)nn4-c4cnn(CCN(C)C)c4)c4ccccc43)cn12`, the solubility at 0.5 h is reported as 800 µg/mL (≈ 1180 µM).

System: not listed separately
Assay: Permeability across apical to basolateral side in human Caco-2 cells at 10 uM measured after 60 mins by LC/MS/MS analysis
Assay type: ADME, cell-based
Settings: read-out: permeability
`Cc1ccc(-n2nc(C(C)(C)C)cc2NC(=O)N[C@H]2CC[C@@H](Oc3ccc4nnc(N5CCC(CO)CC5)n4c3)c3ccccc32)cc1` gave a Papp A→B at 1 h, 10 µM of 3.3 ×10⁻⁶ cm/s. `C[C@H]1CCCCN1c1nnc2ccc(O[C@@H]3CC[C@H](NC(=O)Nc4cc(C(C)(C)C)nn4-c4cnn(CCN(C)C)c4)c4ccccc43)cn12` showed a Papp A→B at 1 h, 10 µM of 1.2 ×10⁻⁶ cm/s.

System: not listed separately
Assay: Protein binding in rat plasma at 10 uM incubated for 4 hrs by LC/MS/MS analysis
Assay type: ADME, cell-free
Settings: read-out: PPB (converted)
`Cc1ccc(-n2nc(C(C)(C)C)cc2NC(=O)N[C@H]2CC[C@@H](Oc3ccc4nnc(N5CCC(CO)CC5)n4c3)c3ccccc32)cc1` gave a fraction unbound at 4 h, 10 µM of 0.001. Compound `C[C@H]1CCCCN1c1nnc2ccc(O[C@@H]3CC[C@H](NC(=O)Nc4cc(C(C)(C)C)nn4-c4cnn(CCN(C)C)c4)c4ccccc43)cn12` has a fraction unbound at 4 h, 10 µM of 0.014.

System: not listed separately
Assay: Protein binding in rat lung homogenate at 10 uM incubated for 4 hrs by LC/MS/MS analysis
Assay type: ADME, tissue-based
Settings: read-out: PB (converted)
For `Cc1ccc(-n2nc(C(C)(C)C)cc2NC(=O)N[C@H]2CC[C@@H](Oc3ccc4nnc(N5CCC(CO)CC5)n4c3)c3ccccc32)cc1`, the fraction unbound at 4 h, 10 µM was 0.009. In the case of `C[C@H]1CCCCN1c1nnc2ccc(O[C@@H]3CC[C@H](NC(=O)Nc4cc(C(C)(C)C)nn4-c4cnn(CCN(C)C)c4)c4ccccc43)cn12`, the fraction unbound at 4 h, 10 µM is reported as 0.005.

System: not listed separately
Assay: Cmax in Sprague-Dawley rat plasma at 0.03 mg/kg, IT measured after 0.8 hrs by LC/MS/MS analysis
Assay type: ADME, organism-based
Parameters: dose 0.03 mg/kg, time 0.8 hrs, route it
Settings: not given
`Cc1ccc(-n2nc(C(C)(C)C)cc2NC(=O)N[C@H]2CC[C@@H](Oc3ccc4nnc(N5CCC(CO)CC5)n4c3)c3ccccc32)cc1` gave a Cmax of 50 nM.

System: not listed separately
Assay: Cmax in Sprague-Dawley rat lung homogenate at 0.03 mg/kg, IT measured after 0.8 hrs by LC/MS/MS analysis
Assay type: ADME, organism-based
Parameters: time 0.8 hrs, dose 0.03 mg/kg, route it
Settings: not given
In the case of `Cc1ccc(-n2nc(C(C)(C)C)cc2NC(=O)N[C@H]2CC[C@@H](Oc3ccc4nnc(N5CCC(CO)CC5)n4c3)c3ccccc32)cc1`, the Cmax is reported as 5070 nM.

System: not listed separately
Assay: Selectivity index, ratio of drug concentration in Sprague-Dawley rat lung homogenate to IC50 for human p38alpha
Assay type: tissue-based
Settings: tissue homogenate
For `Cc1ccc(-n2nc(C(C)(C)C)cc2NC(=O)N[C@H]2CC[C@@H](Oc3ccc4nnc(N5CCC(CO)CC5)n4c3)c3ccccc32)cc1`, the Ratio was > 300. For `C[C@H]1CCCCN1c1nnc2ccc(O[C@@H]3CC[C@H](NC(=O)Nc4cc(C(C)(C)C)nn4-c4cnn(CCN(C)C)c4)c4ccccc43)cn12`, the Ratio was 70.

System: not listed separately
Assay: Drug uptake in Sprague-Dawley rat lung homogenate at 0.03 mg/kg, IT measured after 7 hrs by LC/MS/MS analysis
Assay type: ADME, organism-based
Settings: in vivo, other
`Cc1ccc(-n2nc(C(C)(C)C)cc2NC(=O)N[C@H]2CC[C@@H](Oc3ccc4nnc(N5CCC(CO)CC5)n4c3)c3ccccc32)cc1` gave a Drug uptake of 99%. With `C[C@H]1CCCCN1c1nnc2ccc(O[C@@H]3CC[C@H](NC(=O)Nc4cc(C(C)(C)C)nn4-c4cnn(CCN(C)C)c4)c4ccccc43)cn12` the Drug uptake was 7.2%.

System: not listed separately
Assay: Drug uptake in Sprague-Dawley rat lung homogenate at 0.03 mg/kg, IT measured after 24 hrs by LC/MS/MS analysis
Assay type: ADME, organism-based
Settings: in vivo, other
In the case of `Cc1ccc(-n2nc(C(C)(C)C)cc2NC(=O)N[C@H]2CC[C@@H](Oc3ccc4nnc(N5CCC(CO)CC5)n4c3)c3ccccc32)cc1`, the Drug uptake is reported as 23%. Compound `C[C@H]1CCCCN1c1nnc2ccc(O[C@@H]3CC[C@H](NC(=O)Nc4cc(C(C)(C)C)nn4-c4cnn(CCN(C)C)c4)c4ccccc43)cn12` has a Drug uptake of 1.7%.

System: not listed separately
Assay: Efflux ratio of permeability in human Caco-2 cells at 10 uM measured after 60 mins by LC-MS/MS analysis
Assay type: ADME, cell-based
Settings: not given
For `Cc1ccc(-n2nc(C(C)(C)C)cc2NC(=O)N[C@H]2CC[C@@H](Oc3ccc4nnc(N5CCC(CO)CC5)n4c3)c3ccccc32)cc1`, the efflux ratio at 1 h, 10 µM was > 2.5. In the case of `C[C@H]1CCCCN1c1nnc2ccc(O[C@@H]3CC[C@H](NC(=O)Nc4cc(C(C)(C)C)nn4-c4cnn(CCN(C)C)c4)c4ccccc43)cn12`, the efflux ratio at 1 h, 10 µM is reported as > 2.5.

System: Rattus norvegicus
Assay: Antiinflammatory activity against LPS-induced Sprague-Dawley rat inflammatory model assessed as inhibition of neutrophil cells release in BALF at 0.3 mg/kg, IT measured after 12 hrs relative to control
Assay type: functional
Settings: not given
Work on `Cc1ccc(-n2nc(C(C)(C)C)cc2NC(=O)N[C@H]2CC[C@@H](Oc3ccc4nnc(N5CCC(CO)CC5)n4c3)c3ccccc32)cc1` yielded an inhibition in vivo at 0.3 mg/kg of 19%. For `C[C@H]1CCCCN1c1nnc2ccc(O[C@@H]3CC[C@H](NC(=O)Nc4cc(C(C)(C)C)nn4-c4cnn(CCN(C)C)c4)c4ccccc43)cn12`, the inhibition in vivo at 0.3 mg/kg was 56%.

System: not listed separately
Assay: Drug concentration in Sprague-Dawley rat lung homogenate at 0.3 mg/kg, IT measured after 24 hrs by LC/MS/MS analysis
Assay type: ADME, organism-based
Settings: read-out: Ct
Compound `Cc1ccc(-n2nc(C(C)(C)C)cc2NC(=O)N[C@H]2CC[C@@H](Oc3ccc4nnc(N5CCC(CO)CC5)n4c3)c3ccccc32)cc1` has a concentration at 24 h of 10300 nM. Compound `C[C@H]1CCCCN1c1nnc2ccc(O[C@@H]3CC[C@H](NC(=O)Nc4cc(C(C)(C)C)nn4-c4cnn(CCN(C)C)c4)c4ccccc43)cn12` has a concentration at 24 h of 1400 nM.

System: not listed separately
Assay: Cmax in Sprague-Dawley rat lung homogenate at 0.3 mg/kg, IT measured after 0.8 hrs by LC/MS/MS analysis
Assay type: ADME, organism-based
Parameters: time 0.8 hrs, dose 0.3 mg/kg, route it
Settings: not given
In the case of `C[C@H]1CCCCN1c1nnc2ccc(O[C@@H]3CC[C@H](NC(=O)Nc4cc(C(C)(C)C)nn4-c4cnn(CCN(C)C)c4)c4ccccc43)cn12`, the Cmax is reported as 3040 nM.

System: not listed separately
Assay: Cmax in Sprague-Dawley rat plasma at 0.3 mg/kg, IT measured after 0.8 hrs by LC/MS/MS analysis
Assay type: ADME, organism-based
Parameters: time 0.8 hrs, dose 0.3 mg/kg, route it
Settings: not given
For `C[C@H]1CCCCN1c1nnc2ccc(O[C@@H]3CC[C@H](NC(=O)Nc4cc(C(C)(C)C)nn4-c4cnn(CCN(C)C)c4)c4ccccc43)cn12`, the Cmax was 20 nM.
